Read-outs that look alike come from different tables or passages of the source.
Key:
MCF-7 cells = assay: MCF-7 cell proliferation assay (MTT), estradiol stimulated versus unstimulated; format: cell-based, human; conditions: FIGS. 1 and 2
Description: Those skilled in the art will appreciate that several acceptable estrogen receptor-binding assays are known and available for initial screening of the compounds of the present invention. The initial screen chosen was a human cell line assay, namely the MCF-7 cell proliferation assay for detecting anti-estrogenic/estrogenic activity. The MCF-7 human breast cancer cell line has been used as an industry standard for the evaluation of estrogen receptor antagonists. MCF-7 cells are estrogen-receptor positive (ER+) cancer cells that respond to estradiol stimulation. Antiestrogenic activity is measured in terms of a test article's ability to inhibit estradiol stimulated proliferation, implying an antagonistic action on the estrogen receptor and estogenic activity can be inferred from increased proliferation. The following testing procedure was used.
MCF-7 cells were maintained in RPMI medium free of phenol red and supplemented with 5% charcoal-stripped foetal calf serum, hydrocortisone, bovine insulin, penicillin and streptomycin until they reached 70% confluence. […] Cell survival was evaluated after 3-6 days, by replacing the culture media with 150 μl of fresh medium containing 10 mM 4-(2-hydroxyethyl)-1-piperazineethamsulfonic acid buffer (pH 7.4) followed by addition of 50 μl of 2.5 mg/ml of 3-(4,5-dimethylthiazo-2-yl)-2,5-diphenyltetrazolium bromide (MTT). […]

[1] = tested on: tamoxifen-resistant breast cancers; conditions: tamoxifen-resistant breast cancer patients; cited from earlier work
[2] = target: T1, human recombinant estrogen receptor alpha (Homo sapiens, UniProt P03372); assay: Estrogen receptor alpha binding assay, displacement of [3H] Estradiol
T1 construct: purchased PanVera Corporation
T1 sequence (P03372 1-595): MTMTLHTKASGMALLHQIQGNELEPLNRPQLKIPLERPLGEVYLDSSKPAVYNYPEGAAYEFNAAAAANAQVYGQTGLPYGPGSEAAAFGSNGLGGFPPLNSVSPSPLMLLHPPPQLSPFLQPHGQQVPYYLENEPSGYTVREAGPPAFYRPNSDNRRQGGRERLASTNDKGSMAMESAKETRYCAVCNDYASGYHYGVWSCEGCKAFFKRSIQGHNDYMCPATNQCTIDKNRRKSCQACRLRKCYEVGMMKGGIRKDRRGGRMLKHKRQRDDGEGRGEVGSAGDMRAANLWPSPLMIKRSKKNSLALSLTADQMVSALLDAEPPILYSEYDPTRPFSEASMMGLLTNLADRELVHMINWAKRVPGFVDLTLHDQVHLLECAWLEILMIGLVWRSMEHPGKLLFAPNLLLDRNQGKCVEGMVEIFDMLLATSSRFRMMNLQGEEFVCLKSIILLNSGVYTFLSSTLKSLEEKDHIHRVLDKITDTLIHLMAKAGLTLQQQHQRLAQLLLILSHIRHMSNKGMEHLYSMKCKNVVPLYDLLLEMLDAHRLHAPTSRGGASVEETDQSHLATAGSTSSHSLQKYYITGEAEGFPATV
Procedure: (§1) The human estrogen receptor occurs in two subtypes, alpha and beta. The stable expression of these individual receptor subtypes in cells provides a rapid and accurate means of quantifying the direct interaction of a test article with the estrogen binding sites. Briefly, this assay is conducted in 96 well plates where a series of concentrations of test article are used to displace tritiated estradiol from either estrogen receptor alpha or estrogen receptor beta bearing cell membranes, under equilibrium conditions. […] This measurement is the primary test for mediation of the estrogen receptor and can also be used to measure the relative selectivity of the test article for either the alpha or beta subtype.
The alpha subtype assay measures the binding of [^3H] Estradiol to the human recombinant estrogen receptor. […] Briefly, after proper dilution, a 4.5 ng aliquot of receptor protein in modified Tris-HCL pH 7.5 buffer is incubated with 0.5 nM [^3H] Estradiol for 2 hours at 25° C. Non-specific binding is estimated in the presence of 1.0 μM diethylstilbestrol. Membranes are filtered and washed 3 times, and the filters are counted to determine [^3H] Estradiol specifically bound. Under the same conditions the receptor protein is incubated with varied concentrations of test article ranging from 1 nM to 1 μM and the displacement of [^3H] Estradiol is measured in duplicate. The measurement of the displaced tritiated estradiol allows the determination of an IC50 value, a direct measure of the test articles interaction with the estrogen receptor alpha.

[3] = target: human recombinant estrogen receptor beta (Homo sapiens, UniProt Q92731); assay: Estrogen receptor beta binding assay, displacement of [3H] Estradiol
Procedure: as §1
The beta subtype assay also allowed the determination of an IC50 value of the test article under the same conditions as for the alpha subtype assay with the exception that a 7.5 ng aliquot of receptor protein preparation was used.

[4] = 0.5 nM [3H] Estradiol, 2 hours at 25° C, 4.5 ng receptor protein, read-out: IC50 Value, ER Subtype Alpha
[5] = 0.5 nM [3H] Estradiol, 2 hours at 25° C, 7.5 ng receptor protein, read-out: IC50 Value, ER Subtype Beta

Sequence of human recombinant estrogen receptor beta (Q92731 whole entry): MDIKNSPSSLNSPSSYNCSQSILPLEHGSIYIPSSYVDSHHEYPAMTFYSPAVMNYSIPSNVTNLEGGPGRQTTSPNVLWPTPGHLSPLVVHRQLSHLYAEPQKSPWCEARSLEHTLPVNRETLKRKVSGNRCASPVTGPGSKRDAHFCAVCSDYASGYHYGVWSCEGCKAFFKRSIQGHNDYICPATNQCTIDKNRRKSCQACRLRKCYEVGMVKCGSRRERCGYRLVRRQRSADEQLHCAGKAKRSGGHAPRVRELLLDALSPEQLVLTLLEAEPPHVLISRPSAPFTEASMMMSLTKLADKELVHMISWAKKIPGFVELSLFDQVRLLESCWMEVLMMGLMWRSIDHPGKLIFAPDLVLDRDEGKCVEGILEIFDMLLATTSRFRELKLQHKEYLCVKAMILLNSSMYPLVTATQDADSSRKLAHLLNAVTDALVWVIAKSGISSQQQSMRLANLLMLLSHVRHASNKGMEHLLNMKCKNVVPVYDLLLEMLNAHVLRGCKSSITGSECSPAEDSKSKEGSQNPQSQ

Row | SMILES | effect on estradiol stimulated MCF-7 cell proliferation (shift of dose-response curves) (MCF-7 cells) | IC50 [2, 4] [nM] | IC50 [3, 5] [nM] | further results
1 | CC(=O)c1ccc2c(c1)c(-c1ccc(OCCN3CCCCC3)cc1)cc1cc(O)cc(C)c12 [Formula 4, 1-[7-hydroxy-5-methyl-10-[4-(2-piperidin-1-yl-ethoxy)-phenyl]-phenanthren-2-yl]-ethanone] | antagonizing the effect of estradiol | – | – | –
2 | C[C@]12CC[C@@H]3c4ccc(O)cc4C[C@@H](CCCCCCCCC[S+]([O-])CCCC(F)(F)C(F)(F)F)[C@H]3[C@@H]1CC[C@@H]2O (stereo partly drawn) [ICI 182780] | – | – | – | tamoxifen-resistant patients who responded [1]: approximately two-thirds
3 | C=C(C)c1ccc2c(c1)c(-c1ccc(OCCN3CCCCC3)cc1)cc1cc(O)cc(C)c12 [formula 5] | – | 32 | – | IC50 [3]: 20 nM
4 | CC(C)=C(C)c1ccc2c(c1)c(-c1ccc(OCCN3CCCCC3)cc1)cc1cc(O)cc(C)c12 [formula 6, 7-(1,2-dimethylpropenyl)-4-methyl-9-[4-(2-piperidin-1-yl-ethoxy)-phenyl]-phenanthren-2-ol] | – | – | 9 | IC50 [2]: 18 nM
5 | Cc1cc(O)cc2cc(-c3ccc(OCCN4CCCCC4)cc3)c3cc(C(=O)C(C)C)ccc3c12 [formula 3, 1-[7-hydroxy-5-methyl-10-[4-(2-piperidin-1-yl-ethoxy)-phenyl]-phenanthren-2-yl]-2-methyl-propan-1-one] | antagonizing the effect of estradiol | 39 | 120 | –

— patent US20020156077A1, “Non-steroidal estrogen receptor ligands” (priority 2001, published 2002)
